# Measured values as given in patent publication US20230339878A1, “SLC26A3 INHIBITORS AND USE THEREOF” (THE REGENTS OF THE UNIVERSITY OF CALIFORNIA, priority 2018, published 2023).
# “Also recorded” adds a separate entry of the source.
# Tested on: mouse distal colonic closed loops
# Assay: Closed distal colonic loop fluid absorption in mice
# Format: in vivo
# Conditions: 10 µM intraluminal, 60 min
# Description: Female CD1 mice (age 8-10 weeks) were given free access to Pedialyte (per liter: Na^+ 45 mEq, Cl^- 35 mEq, K^+ 20 mEq, dextrose 25 g; Abbott, Abbot Park, IL) but not solid food for 48 h before experiments. Mice were treated with 500 µL mineral oil once a day rectally (last dose 12 h before surgeries) during this period to evacuate the colon. Closed intestinal loops were isolated as described. Mice were anesthetized with isoflurane and body temperature was maintained during surgery at 36-38° C. using a heating pad. A small abdominal incision was made to expose the distal colon, and one closed distal colonic loop (length 1.5-2 cm) was isolated with sutures in each mouse. Loops were injected with 100 µL phosphate-buffered saline (PBS, pH: 7.4, in mM: 137 NaCl, 2.7 KCl, 8 Na2HPO4, 1.8 KH2PO4, 1 CaCl2, 0.5 MgCl2) without and with 10 µM Compound A1 and/or 10 µM tenapanor (MedChemExpress, Monmouth Junction, NJ). The abdominal incision was closed with sutures, and mice were allowed to recover from anesthesia. Colonic loops were removed at 0 and 60 min (in separate mice) and loop length and weight were measured to quantify fluid absorption. Luminal fluid was emptied with a syringe and pH was measured immediately using AB15 pH Meter (Thermo Fisher Scientific, South San Francisco, CA). In separate studies, mid-jejunal loops (length 2-3 cm, 3-4 loops per mouse) were isolated as described above, injected with 100 µL PBS without or with 10 µM Compound A1 and/or 10 µM tenapanor, and excised at 0 and 30 min to measure loop length and weight.
# Closed intestinal loop studies in mice were done to study effects of Compound A1 on fluid absorption. […] Changes in luminal pH were also determined as a semi-quantitative measure of slc26a3-facilitated HCO3^- secretion / C1^- absorption, with slc26a3 inhibition predicted to reduce luminal fluid alkalinization. For these experiments, a phosphate-buffered solution (PBS) without HCO3^- / CO2 was used to avoid confounding effects of luminal carbonic anhydrases. […] Administration of the NHE3 (Na^+/H^+ exchanger 3) inhibitor tenapanor had no effect on weight/length ratio or luminal pH in distal colonic loops.
compound,measurement,value
Cc1c(CC(=O)O)c(=O)oc2c(C)c(OCc3cccc(Br)c3)ccc12 [Compound A1],"loop weight/length ratio (fluid absorption), distal colonic loops",completely prevented the reduction in loop weight/length ratio; also recorded: blocked fluid absorption in closed colonic loops; also recorded: inhibits intestinal fluid absorption in mouse distal colon
same,"luminal pH, distal colonic loops",reduced alkalinization of luminal fluid
